System: Vasopressin V2
Test: Vasopressin V2 agonist effects in normal conscious water-loaded rats
Assay type: in vivo
Conditions: oral dose of 10 mg/kg, urine collected for four hours after dosing, Sprague-Dawley (CD) rats, water-loaded 30 ml/kg; for Changes in Urinary Osmolality: Percent changes in osmolality vs. control; for Urine Volume (% decrease): Percent decrease in urine volume vs. control
From the text: Vasopressin V2 Agonist Effects of Test Compounds in Normal Conscious Water-Loaded Rats:
Male or female normotensive Sprague-Dawley rats (Charles River Laboratories, Inc., Kingston, NY) of 350-500 g body weight were supplied with standard rodent diet (Purina Rodent Lab. Chow 5001) and water ad libitum. On the day of test, rats were placed individually into metabolic cages equipped with devices to separate the feces from the urine and containers for collection of urine. A test compound or a reference agent was given at an oral dose of 10 mg/kg in a volume of 10 ml/kg. The vehicle used was 20% dimethylsulfoxide (DMSO) in 2.5% preboiled corn starch. Thirty minutes after dosing the test compound, rats were gavaged with water at 30 ml/kg into the stomach using a feeding needle. During the test, rats were not provided with water or food. Urine was collected for four hours after dosing of the test compound. At the end of four hours, urine volume was measured. Urinary osmolality was determined using a Fiske One-Ten Osmometer (Fiske Associates, Norwood, MA, 02062) or an Advanced CRYOMATIC Osmometer, Model 3C2 (Advanced Instruments, Norwood, MA). Determinations of Na^+, K^+ and Cl^- ion were carried out using ion specific electrodes in a Beckman SYNCHRON EL-ISE Electrolyte System analyzer. The urinary osmolality should increase proportionally. In the screening test, two rats were used for each compound. If the difference in the urine volume of the two rats was greater than 50%, a third rat was used.

Cc1ccn(-c2ccc(C(=O)N3Cc4ccc[n+]([O-])c4Nc4ccccc43)c(Cl)c2)n1 [Example 1, [2-Chloro-4-(3-methyl-1H-pyrazol-1-yl)-phenyl]-(6,11-dihydro-5H-pyrido[2,3-b][1,5]benzodiazepin-6-yl)-methanone-1-oxide]
Changes in Urinary Osmolality: 753% | Urine Volume (% decrease): 80%

Cc1ccn(-c2ccc(C(=O)N3Cc4ccc[n+]([O-])c4Nc4ccccc43)c(Br)c2)n1 [Example 3, [2-Bromo-4-(3-methyl-1H-pyrazol-1-yl)-phenyl]-(6,11-dihydro-5H-pyrido [2,3-b][1,5]benzodiazepin-6-yl)-methanone-1-oxide]
Changes in Urinary Osmolality: 747% | Urine Volume (% decrease): 90%

Cc1ccn(-c2ccc(C(=O)N3Cc4ccc[n+]([O-])c4Nc4ccccc43)c(C(F)(F)F)c2)n1 [Example 4, 4-[(3-Methyl-1H-pyrazol-1-yl)-2-(trifluoromethyl)-phenyl]-(6,11-dihydro-5H-pyrido[2,3-b][1,5]benzodiazepin-6-yl)-methanone 1-oxide]
Changes in Urinary Osmolality: 331% | Urine Volume (% decrease): 72%

Reference: patent EP1149096B1, “TRICYCLIC PYRIDINE N-OXIDES VASOPRESSIN AGONISTS” (Wyeth, priority 1999, dated 2000)
